# According to patent publication US11801252B2, “Pharmaceutical composition” (Jiangsu Hengrui Medicine Co., Ltd., priority 2021, dated 2023):
# Read-outs that look alike come from different tables or passages of the source.
# Columns and labels:
# [1] = stated without source; cited from earlier work
# [2] = In vivo food effects study in healthy subjects (Test Example 3); design: species or system human (healthy male subjects); details: after Test Formulation 300 mg single oral; for AUC—% Extrap of SNAC / CLz/F of SNAC / λz of SNAC: healthy male subjects, Mean ± SD; for AUC(0-t) / AUC(0-inf) / Cmax / MRT last / MRT inf / Vd/F / half-life / Tmax: male, human, plasma, po, 300 mg; for AUC(0-t): read-out: AUC0-t of SNAC; for AUC(0-inf): read-out: AUC0-∞ of SNAC; for Cmax: read-out: Cmax of SNAC; for MRT last: read-out: MRT0-t of SNAC; for MRT inf: read-out: MRT0-∞ of SNAC; for Vd/F: read-out: Vz/F of SNAC; for half-life: read-out: t1/2 of SNAC (converted); for Tmax: read-out: Tmax of SNAC
# Text: To study the effect of food on the pharmacokinetic characteristics of abiraterone acetate tablets through a single oral administration of abiraterone acetate tablets under fasting state or after meal, or a single oral administration of abiraterone acetate tablets (Zytiga®) produced by Patheon Inc. under modified fasting state, in healthy subjects.
# A single-center, randomized, open-label, three-period, self-controlled crossover trial design was applied. A total of 24 healthy male subjects were planned to be enrolled in the study. The washout period between each dose group was seven days. Blood samples were collected at a series of time points, and safety test was performed. The HPLC-MS/MS method was used to determine the plasma concentration of abiraterone and SNAC at different time points after drug administration. The non-compartmental model was used to calculate the pharmacokinetic parameters, and statistical analysis was performed.
# The subjects were orally administered a single dose of the test formulation (T) under fasting state at a dose of 300 mg (150 mg×2 tablets), a single dose of the test formulation (T) of 300 mg abiraterone acetate tablets (I) (150 mg×2 tablets) after a high-fat meal (the total calories were approximately 800˜1,000 kcal, wherein approximately 50% of the calories were derived from fat; the test meal of each test cycle for the postprandial administration should be consistent; a high-fat meal was given 30 minutes before drug administration and should be finished within 30 minutes), or a single dose of the reference preparation of 1,000 mg abiraterone acetate tablets (Zytiga®) (250 mg×4 tablets) under modified fasting state (a medium-fat meal was given two hours before drug administration and one hour after drug administration; the total calories were approximately 450 kcal wherein 30% of the calories were derived from fat; the meal should be finished within 30 minutes), with 240 mL of warm water, in the morning on the day of drug administration for each cycle. Liquid was prohibited before administration and one hour after drug administration, and a standard lunch and dinner (a standardized light diet) were given approximately 4 and 10 hours after drug administration. The drug was swallowed whole instead of being sucked or chewed.
# Test Formulation (T): Abiraterone acetate tablets (Formulation 5), specification: 150 mg;
# Reference Preparation (R): Abiraterone Acetate Tablets; produced by Patheon Inc.; trade name: Zytiga®; specification: 250 mg.
# The PKPS was used for the statistical analysis of pharmacokinetic parameters.
# (§1) With the dosing order, dosing cycle and dosing regimen as fixed effects, the subjects were included as random effects in the linear mixed model as random effects. The least-squares mean ratio of Cmax, AUC0-t and AUC0-∞ of abiraterone in plasma after oral administration of the test formulation T under a high-fat meal or fasting states, and its 90% confidence interval were calculated.
# as §1, with “dosing orders,” for “dosing order,”, “mixed model.” for “mixed model as random effects.”, “meal and oral administration of the reference formulation R under modified” for “meal or”
# [3] = after a high-fat meal, N = 24, Mean ± SD
# [4] = fasting state, N = 23, Mean ± SD
compound,measurement,setting,value
"O=C([O-])CCCCCCCNC(=O)c1ccccc1O.[Na+] [SNAC, sodium 8-(salicylamido)caprylate]",PKA,[1],5.0
same,AUC—% Extrap of SNAC,"[2]; after a high-fat meal, N = 24",0.46 ± 0.63%
same,CLz/F of SNAC,"[2]; after a high-fat meal, N = 24",198.03 ± 28.78 mL/h
same,λz of SNAC,"[2]; after a high-fat meal, N = 24",0.27 ± 0.12 h⁻¹
same,AUC—% Extrap of SNAC,"[2]; fasting state, N = 23",0.66 ± 0.54%
same,CLz/F of SNAC,"[2]; fasting state, N = 23",255.02 ± 72.16 mL/h
same,λz of SNAC,"[2]; fasting state, N = 23",0.19 ± 0.08 h⁻¹
same,AUC(0-t),[2]; [3],1540 ± 247 ng·h/mL
same,AUC(0-inf),[2]; [3],1550 ± 245 ng·h/mL
same,Cmax,[2]; [3],1120 ± 574 ng/mL
same,MRT last,[2]; [3],2.28 ± 0.99 h
same,MRT inf,[2]; [3],2.36 ± 1 h
same,Vd/F,[2]; [3],0.87 ± 0.362 L
same,half-life,[2]; [3],3.06 ± 1.19 h
same,Tmax,"[2]; after a high-fat meal, N = 24, median",1.13 h
same,AUC(0-t),[2]; [4],1250 ± 305 ng·h/mL
same,AUC(0-inf),[2]; [4],1250 ± 306 ng·h/mL
same,Cmax,[2]; [4],1580 ± 697 ng/mL
same,MRT last,[2]; [4],1.59 ± 1.35 h
same,MRT inf,[2]; [4],1.74 ± 1.38 h
same,Vd/F,[2]; [4],1.62 ± 0.949 L
same,half-life,[2]; [4],4.22 ± 1.71 h
same,Tmax,"[2]; fasting state, N = 23, median",0.5 h
